Several values for one entry are separate records, joined by “and”; a condition that tells them apart may be missing. Identical values can stand only once. Like-named read-outs stand apart in the source and are kept apart here.
Legend:
ChoXWV = biological target: T1, ChoXWV (Sinorhizobium meliloti, UniProt Q92N37); assay: Competitive uptake, MKH13 expressing choXWV; type: cell-based; details: pNchoXWV, SBP ChoX, [^14C]choline 10 μM, competitor 1 mM
T1 sequence (Q92N37 28-318): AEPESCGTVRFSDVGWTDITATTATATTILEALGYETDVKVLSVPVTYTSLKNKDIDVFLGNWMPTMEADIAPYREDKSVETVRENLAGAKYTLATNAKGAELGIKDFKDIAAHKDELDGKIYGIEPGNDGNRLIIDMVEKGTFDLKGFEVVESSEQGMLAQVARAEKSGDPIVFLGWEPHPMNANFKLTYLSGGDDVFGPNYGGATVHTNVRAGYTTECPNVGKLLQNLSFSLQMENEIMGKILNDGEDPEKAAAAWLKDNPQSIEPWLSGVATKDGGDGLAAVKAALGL
T1 sequence (Q92N36 1-281 partner): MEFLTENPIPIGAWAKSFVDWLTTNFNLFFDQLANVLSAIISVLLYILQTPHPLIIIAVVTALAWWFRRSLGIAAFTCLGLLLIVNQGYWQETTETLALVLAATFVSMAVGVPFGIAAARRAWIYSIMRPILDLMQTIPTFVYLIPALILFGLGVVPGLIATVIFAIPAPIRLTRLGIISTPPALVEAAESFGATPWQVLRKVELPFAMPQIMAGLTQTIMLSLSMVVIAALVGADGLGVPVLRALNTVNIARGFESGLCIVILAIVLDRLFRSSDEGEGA
T1 sequence (Q92N35 1-349 partner): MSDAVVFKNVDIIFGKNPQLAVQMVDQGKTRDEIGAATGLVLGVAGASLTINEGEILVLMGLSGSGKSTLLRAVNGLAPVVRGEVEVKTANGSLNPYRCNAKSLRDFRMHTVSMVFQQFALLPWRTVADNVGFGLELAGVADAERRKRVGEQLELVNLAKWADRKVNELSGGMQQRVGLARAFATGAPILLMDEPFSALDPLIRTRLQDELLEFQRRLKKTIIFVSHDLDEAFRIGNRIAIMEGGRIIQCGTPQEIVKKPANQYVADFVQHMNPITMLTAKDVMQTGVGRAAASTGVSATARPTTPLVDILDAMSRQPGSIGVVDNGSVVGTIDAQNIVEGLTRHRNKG

CbcX and CaiX with CbcWV = type: cell-based, Pseudomonas aeruginosa; details: MKH13, pNcbcXWV, pT-PA5388, SBPs CbcX/CaiX, competitor 1 mM
CbcX with CbcWV = CbcX with CbcWV (Pseudomonas aeruginosa, UniProt Q9HTI6); assay: Competitive uptake, MKH13 expressing cbcXWV; type: cell-based
BetX with CbcWV = biological target: T2, BetX with CbcWV (Pseudomonas aeruginosa, UniProt Q9HZ04); assay: Competitive uptake, MKH13 expressing cbcWV and betX; type: cell-based; details: pNcbcWV, pT-PA3236, SBP BetX, [^14C]betaine 10 μM, competitor 1 mM
T2 sequence (Q9HZ04 26-285): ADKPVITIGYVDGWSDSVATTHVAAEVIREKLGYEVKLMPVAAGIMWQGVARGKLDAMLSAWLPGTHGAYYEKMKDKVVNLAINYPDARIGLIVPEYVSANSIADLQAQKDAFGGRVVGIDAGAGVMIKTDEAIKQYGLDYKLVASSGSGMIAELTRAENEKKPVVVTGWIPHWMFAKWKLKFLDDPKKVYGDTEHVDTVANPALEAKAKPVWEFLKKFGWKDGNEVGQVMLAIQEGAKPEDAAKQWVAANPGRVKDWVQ
T2 sequence (Q9HTI7 1-279 partner): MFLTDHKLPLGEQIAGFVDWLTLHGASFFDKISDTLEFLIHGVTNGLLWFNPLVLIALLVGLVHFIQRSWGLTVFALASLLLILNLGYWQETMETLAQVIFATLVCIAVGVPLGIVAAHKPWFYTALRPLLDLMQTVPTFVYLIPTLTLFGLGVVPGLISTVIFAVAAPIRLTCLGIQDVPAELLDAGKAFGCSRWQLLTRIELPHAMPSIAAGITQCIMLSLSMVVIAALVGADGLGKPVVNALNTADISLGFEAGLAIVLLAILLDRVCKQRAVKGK
T2 sequence (Q9HTI8 1-392 partner): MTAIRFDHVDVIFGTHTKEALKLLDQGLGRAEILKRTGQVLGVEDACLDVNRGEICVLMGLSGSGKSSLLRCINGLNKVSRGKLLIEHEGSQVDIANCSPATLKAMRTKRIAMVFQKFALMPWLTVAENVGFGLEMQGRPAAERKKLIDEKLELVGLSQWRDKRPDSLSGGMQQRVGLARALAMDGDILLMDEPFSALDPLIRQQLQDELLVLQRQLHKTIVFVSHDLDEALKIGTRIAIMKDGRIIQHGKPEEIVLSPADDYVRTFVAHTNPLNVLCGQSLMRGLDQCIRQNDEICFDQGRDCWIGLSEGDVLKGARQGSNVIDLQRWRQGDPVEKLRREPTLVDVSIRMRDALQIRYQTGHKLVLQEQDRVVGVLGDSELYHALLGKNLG

CaiX with CbcWV = type: cell-based, Pseudomonas aeruginosa; details: MKH13; pNcbcWV, pT-PA5388; SBP CaiX; [^14C]carnitine 10 μM; competitor 1 mM
[1] = substrate: C[N+](C)(C)CC(=O)O; assay: cells, lysate or membranes; details: mean (SE), n = 4
[2] = substrate: C[N+](C)(C)CCO; assay: cells, lysate or membranes; details: mean (SE), n = 4
[3] = substrate: C[N+](C)(C)C[C@H](O)CC(=O)[O-]; assay: cells, lysate or membranes; details: other: PA5378::tn, pNcbcWV; SBP CaiXPAO1; mean (SE), n = 4
[4] = other: MKH13, pNcbcXWV, SBP CbcX, Michaelis–Menten fit

For `CC(=O)OCC[N+](C)(C)C` [AC, acetylcholine], the “% inhibition of uptake of substrate by unlabelled competitor” value (“% inhibition of uptake of substrate” for short) (ChoXWV) was 88%.

With `CN(C)CC(=O)O` [DM, dimethylglycine] the “% inhibition of uptake of substrate” value (CbcX and CaiX with CbcWV; [^14C]betaine 10 μM) was −4%, the “% inhibition of uptake of substrate” value (CbcX and CaiX with CbcWV; [^14C]choline 10 μM) was −8% and the “% inhibition of uptake of substrate” value (CbcX with CbcWV) was 4%. The “% inhibition of uptake of substrate” value (CbcX with CbcWV; MKH13, pNcbcXWV, SBP CbcX, [^14C]betaine 10 μM, competitor 1 mM) was −5%, the “% inhibition of uptake of substrate” value (BetX with CbcWV) was 56% and the “% inhibition of uptake of substrate” value (CaiX with CbcWV) was 2%.

With `CNCC(=O)O` [MM, monomethylglycine] the “% inhibition of uptake of substrate” value (CbcX and CaiX with CbcWV; [^14C]betaine 10 μM) was 3%, the “% inhibition of uptake of substrate” value (CbcX and CaiX with CbcWV; [^14C]choline 10 μM) was 2% and the “% inhibition of uptake of substrate” value (CbcX with CbcWV) was −3% and 2%. The “% inhibition of uptake of substrate” value (ChoXWV) was −4%, the “% inhibition of uptake of substrate” value (BetX with CbcWV) was −13% and the “% inhibition of uptake of substrate” value (CaiX with CbcWV) was 0%.

With `C[N+](C)(C)CCOP(=O)(O)O` [PC, phosphorylcholine] the “% inhibition of uptake of substrate” value (CbcX with CbcWV; MKH13, pNcbcXWV, SBP CbcX, [^14C]choline 10 μM, competitor 1 mM) was 1% and the “% inhibition of uptake of substrate” value (ChoXWV) was 5%.

B1: CbcX with CbcWV (Pseudomonas aeruginosa PAO1) (protein)
chain: AEPESCASVRFADVGWTDITVTTAVTRQVLESLGYKTKVNLLSVPVTYRSLANNDLDVFLGNWMPTMTNDIKQYAEKGTVETLRANLEGAKYTLAVPQYVYDGGLRSFADIAKFSDKLGNKIYGIEPGNDGNRVAQSMIDKNAFELGKFKLVESSEAGMLSQVQRAIRRNQWVVFLGWEPHPMNTRFQMKYLEGGDDFFGPNYGGATIYTNVRKGYAQECANVGQLLKNLSFTLEMENKLMDAVLNENKKPEEAAKAWLKDHPEQLDAWLAGVTTRDGQPAAAAAKLAFAK
For B1, the Km [1, 4] was 24.2 (2.4) μM, the Vmax [1, 4] was 11.6 (0.6) nmol min^-1 and the Km [2, 4] was 2.6 (0.66) μM.

B2: CbcWV-CaiX (Pseudomonas aeruginosa PAO1) (protein)
chain: AEPEQCRTVRLGTVNWTDVVASSAVAEALLDGLGYQVKQTSASQQIVLAGLADKQLDLFLGYWQPTMQPVARPYLDKGRIEVIEPPTLADAQSTYAVPSYVAEGGLKTFADIARFKDKLGGRIYAIEPGSGSNRITRKMIDDNRFGLKGFQLVESSEAGMLTAVKRAIKRKQWVVFFGWKPHPMNLQIDMTYLTGSEDVFGPDEGAATVSTMTAAGYQAQCGNVARLLHNLRFSSAQVSQVMAPILDRTQPLDAARQWLKANPEPLKAWLDGVSTFDGKDGLAALQASLK
For B2, the Km [3] was 24 μM and 24.2 (8.3) μM.

B3: BetX with CbcWV (Pseudomonas aeruginosa PAO1) (protein)
chain: ADKPVITIGYVDGWSDSVATTHVAAEVIREKLGYEVKLMPVAAGIMWQGVARGKLDAMLSAWLPGTHGAYYEKMKDKVVNLAINYPDARIGLIVPEYVSANSIADLQAQKDAFGGRVVGIDAGAGVMIKTDEAIKQYGLDYKLVASSGSGMIAELTRAENEKKPVVVTGWIPHWMFAKWKLKFLDDPKKVYGDTEHVDTVANPALEAKAKPVWEFLKKFGWKDGNEVGQVMLAIQEGAKPEDAAKQWVAANPGRVKDWVQ
For B3, the Km ([1]; other: MKH13, pNcbcWV + pTPA3236, SBP BetX) was 0.6 (0.16) μM.

B4: ChoXWV (Sinorhizobium meliloti 1021) (protein)
chain: AEPESCGTVRFSDVGWTDITATTATATTILEALGYETDVKVLSVPVTYTSLKNKDIDVFLGNWMPTMEADIAPYREDKSVETVRENLAGAKYTLATNAKGAELGIKDFKDIAAHKDELDGKIYGIEPGNDGNRLIIDMVEKGTFDLKGFEVVESSEQGMLAQVARAEKSGDPIVFLGWEPHPMNANFKLTYLSGGDDVFGPNYGGATVHTNVRAGYTTECPNVGKLLQNLSFSLQMENEIMGKILNDGEDPEKAAAAWLKDNPQSIEPWLSGVATKDGGDGLAAVKAALGL
In the case of B4, the Km ([2]; other: MKH13, pNchoXWV, SBP ChoX) is reported as 1.8 (0.36) μM.

— paper PMC5503199 (Molecular microbiology, 2009)
